Measured values taken from patent publication US7482308B2, “Difluoromethanesulfonyl anilide derivatives useful as herbicides” (Bayer CropScience AG, priority 2004, dated 2009).

Tests used:
Assay type in all cases: in vivo
[1] = tested on: Cyperus serotinus Rottboel; assay: Test for herbicidal effect against paddy field weeds (Test Example 1); conditions: examined 3 weeks after treatment
Procedure: (§1) Preparation of Formulation of the Active Compound
(§2) • Carrier: DMF 5 parts by weight • Emulsifier: Benzyloxy polyglycol ether 1 part by weight
(§3) A formulation of an active compound is obtained as an emulsifiable concentrate by mixing 1 part by weight of the active compound with the above-mentioned amount of the carrier and emulsifier. A prescribed amount of the formulation is diluted with water.
(§4) In a green house seeds or tubers of Scirpus juncoides Roxburgh, Monochoria vaginalis Presi, annual broad-leaved weeds (Lindemia procumbens Philcox, Rotala indica Koehne, Elatine triandra Schk, Ammannia multiflora Roxb., etc.), Cyperus serotinus Rottboel were inoculated in a 500 cm^2 pot filled with paddy field soil. Then water was poured to a depth of about 2-3 cm. Five days and 13 days after inoculation, a prescribed, diluted solution of the formulation of each active compound, prepared according to the aforementioned preparation method, was applied to the surface of water. After the treatment the water depth of 3 cm was maintained and the herbicidal effect was examined after 3 weeks from the treatment.
(§5) The herbicidal effect was rated 100% in the case of complete death and as 0% in the case of no herbicidal effect. In case of showing higher than 80% herbicidal effect, it is evaluated as practical as herbicide.

[2] = tested on: Monochoria vaginalis Presi; assay: as above; conditions: examined 3 weeks after treatment
Procedure: as §1, §2, §3, §4, §5

[3] = tested on: Scirpus juncoides Roxburgh; assay: as above; conditions: examined 3 weeks after treatment
Procedure: as §1, §2, §3, §4, §5

[4] = tested on: annual broad-leaved weeds; assay: as above; conditions: examined 3 weeks after treatment
Procedure: as §1, §2, §3, §4, §5

[5] = tested on: Cyperus serotinus Rottboel; assay: Test for residual effectiveness against paddy field weeds (Test Example 2); conditions: 60 g ai/ha; period of maintaining herbicidal effect of higher than 80%
From the text: (§6) In a green house a 1000 cm^2 pot was filled with paddy field soil and water was poured to a depth of about 2 to 3 cm. A prescribed, diluted solution of the above-mentioned Test Example 1, was applied to the surface of water. After the prescribed time after the treatment (just after treatment, 1 week, 2 weeks, 3 weeks, 4 weeks, 5 weeks, 6 weeks and 7 weeks after treatment), seeds or tubers of the weeds to be tested Scirpus juncoides Roxburgh, Monochoria vaginalis Presi, annual broad-leaved weeds (Lindernia procumbens Philcox, Rotala indica Koehne, Elatine triandra Schk, Ammannia multiflora Roxb., etc.), Cyperus serotinus Rottboel and Sagittaria pygmaea Miq. were inoculated. Three weeks after the inoculation each herbicidal effect was examined.
(§7) The evaluation of the residual effectiveness was shown as the period (number of weeks) of maintaining herbicidal effect of higher than 80%, after the evaluation of herbicidal effect had been conducted in the similar manner as the above-mentioned Test Example 1.

[6] = tested on: Monochoria vaginalis Presi; assay: as above; conditions: 60 g ai/ha; period of maintaining herbicidal effect of higher than 80%
From the text: as §6, §7

Sagittaria pygmaea Miq. = assay: as above; conditions: 60 g ai/ha; period of maintaining herbicidal effect of higher than 80%
From the text: as §6, §7

[7] = tested on: Scirpus juncoides Roxburgh; assay: as above; conditions: 60 g ai/ha; period of maintaining herbicidal effect of higher than 80%
From the text: as §6, §7

[8] = tested on: annual broad-leaved weeds; assay: as above; conditions: 60 g ai/ha; period of maintaining herbicidal effect of higher than 80%
From the text: as §6, §7

[9] = tested on: sulfonylurea resistant Elatine triandra Schk (collected in Kazo area, Saitama Pref.); assay: Test for herbicidal effect against sulfonylurea resistant weeds (Test Example 3); conditions: applied at beginning of emergence, examined 3 weeks after treatment
From the text: (§8) In a green house seeds of Scirpus juncoides Roxburgh (collected in Iwamizawa area, Hokkaido), Lindernia procumbens Philcox (collected in Kazo area, Saitama Pref.), Lindernia procumbens Philcox (collected in Higashi-Hiroshima area, Hiroshima Pref.), Elatine triandra Schk (collected in Kazo area, Saitama Pref.), all of which were confirmed as sulfonylurea resistant, were inoculated in a 20 cm^2 cup filled with paddy field soil. Then water was poured to a depth of about 2 to 3 cm. At the beginning of emergence of each weed, a prescribed, diluted solution of the formulation of each active compound prepared in the same manner as the above-mentioned Test Example 1 was applied to the surface of water. After the treatment the water depth of 3 cm was maintained and the herbicidal effect was examined after 3 weeks from the treatment. The evaluation of the herbicidal effect was conducted in the same manner as the above-mentioned Test Example 1. In case of showing higher than 80% herbicidal effect, it is evaluated as practical as herbicide. In consideration of the possibility that the biological properties including herbicide resistance of the plants grown in different areas might be different, sulfonylurea resistant Lindernia procumbens Philcox collected in two different areas were used in the present tests. The study results with the compounds No. 1, 3, 11 and 17 and the comparative compound No. C-1 as specific examples are shown in the following Table 6.

[10] = tested on: sulfonylurea resistant Lindernia procumbens Philcox (collected in Higashi-Hiroshima area, Hiroshima Pref.); assay: as above; conditions: applied at beginning of emergence, examined 3 weeks after treatment
From the text: as §8

[11] = tested on: sulfonylurea resistant Lindernia procumbens Philcox (collected in Kazo area, Saitama Pref.); assay: as above; conditions: applied at beginning of emergence, examined 3 weeks after treatment
From the text: as §8

[12] = tested on: sulfonylurea resistant Scirpus juncoides Roxburgh (collected in Iwamizawa area, Hokkaido); assay: as above; conditions: applied at beginning of emergence, examined 3 weeks after treatment
From the text: as §8

[13] = tested on: transplanted rice (var. Nipponbare); assay: Test for phytotoxicity to transplanted rice (Test Example 4); conditions: 60 g ai/ha, application 5 days after transplanting, examined 2 weeks after treatment
Procedure: The phytotoxicity to transplanted rice was evaluated under the conditions with more shallow planting depths than usual depth of 2 cm, simulating the severe condition for herbicides to cause rice injury in the paddy. In a greenhouse 2 to 2.5 leaf-stage of rice (var. Nipponbare) was transplanted at three different depths, in a 1000 cm^2 pot filled with paddy field soil. Then water was poured to a depth of about 2 to about 3 cm. Five days after transplanting, a prescribed, diluted solution of the formulation of each active compound, prepared in the same manner as the above-mentioned Test Example 1, was applied to the surface of water. After the treatment the water depth of 3 cm was maintained and the rice injury was examined after 2 weeks from the treatment. The rice injury was rated 100% in the case of complete death and as 0% in the case of no injury. In case of showing less than 20% injury, it is evaluated as practical as rice herbicide.

[14] = 15 g ai/ha, application 5 days after inoculation
[15] = 15 g ai/ha, application 13 days after inoculation
[16] = 30 g ai/ha, application 5 days after inoculation
[17] = 30 g ai/ha, application 13 days after inoculation

Question: For `COc1cc(OC)nc(C(O)c2cccc(F)c2NS(=O)(=O)C(F)F)n1` (stereo not drawn) [Compound 1, 2-fluoro-6-[(4,6-dimethoxypyrimidin-2-yl)hydroxymethyl]-N-difluoromethanesulfonanilide], which “herbicidal effect Cyperus serotinus” value [1, 14] is on record?
Answer: 100%

Question: And the “herbicidal effect Cyperus serotinus” value [1, 15]?
Answer: 95%

Question: What about the “herbicidal effect Cyperus serotinus” value [1, 16] of the same molecule?
Answer: 100%

Question: And the “herbicidal effect Cyperus serotinus” value [1, 17]?
Answer: 100%

Question: What about the “herbicidal effect Monochoria vaginalis” value [2, 14] of the same molecule?
Answer: 100%

Question: What about the “herbicidal effect Monochoria vaginalis” value [2, 15] of the same molecule?
Answer: 100%

Question: And the “herbicidal effect Monochoria vaginalis” value [2, 16]?
Answer: 100%

Question: And the “herbicidal effect Monochoria vaginalis” value [2, 17]?
Answer: 100%

Question: And the “herbicidal effect Scirpus juncoides” value [3, 14]?
Answer: 100%

Question: And the “herbicidal effect Scirpus juncoides” value [3, 15]?
Answer: 100%

Question: What about the “herbicidal effect Scirpus juncoides” value [3, 16] of the same molecule?
Answer: 100%

Question: What about the “herbicidal effect Scirpus juncoides” value [3, 17] of the same molecule?
Answer: 100%

Question: What about the “herbicidal effect broad-leaved weeds” value [4, 14] of the same molecule?
Answer: 100%

Question: What about the “herbicidal effect broad-leaved weeds” value [4, 15] of the same molecule?
Answer: 95%

Question: And the “herbicidal effect broad-leaved weeds” value [4, 16]?
Answer: 100%

Question: And the “herbicidal effect broad-leaved weeds” value [4, 17]?
Answer: 100%

Question: What about the “period showing sufficient residual herbicidal effectiveness Cyperus serotinus” value [5] of the same molecule?
Answer: 3 week

Question: What about the “period showing sufficient residual herbicidal effectiveness Monochoria vaginalis” value [6] of the same molecule?
Answer: 4 week

Question: And the “period showing sufficient residual herbicidal effectiveness Sagittaria pygmaea” value (Sagittaria pygmaea Miq.)?
Answer: 3 week

Question: What about the “period showing sufficient residual herbicidal effectiveness Scirpus juncoides” value [7] of the same molecule?
Answer: 6 week

Question: What about the “period showing sufficient residual herbicidal effectiveness broad-leaved weeds” value [8] of the same molecule?
Answer: 3 week

Question: And the “herbicidal effect against sulfonylurea resistant weeds Elatine triandra (collected in Kazo area, Saitama Pref.)” value ([9]; 30 g ai/ha)?
Answer: 100%

Question: And the “herbicidal effect against sulfonylurea resistant weeds Elatine triandra (collected in Kazo area, Saitama Pref.)” value ([9]; 60 g ai/ha)?
Answer: 100%

Question: And the “herbicidal effect against sulfonylurea resistant weeds Lindernia procumbens (collected in Higashi-Hiroshima area, Hiroshima Pref.)” value ([10]; 30 g ai/ha)?
Answer: 100%

Question: What about the “herbicidal effect against sulfonylurea resistant weeds Lindernia procumbens (collected in Higashi-Hiroshima area, Hiroshima Pref.)” value ([10]; 60 g ai/ha) of the same molecule?
Answer: 100%

Question: What about the “herbicidal effect against sulfonylurea resistant weeds Lindernia procumbens (collected in Kazo area, Saitama Pref.)” value ([11]; 30 g ai/ha) of the same molecule?
Answer: 95%

Question: What about the “herbicidal effect against sulfonylurea resistant weeds Lindernia procumbens (collected in Kazo area, Saitama Pref.)” value ([11]; 60 g ai/ha) of the same molecule?
Answer: 100%

Question: And the “herbicidal effect against sulfonylurea resistant weeds Scirpus juncoides (collected in Iwamizawa area, Hokkaido)” value ([12]; 30 g ai/ha)?
Answer: 100%

Question: What about the “herbicidal effect against sulfonylurea resistant weeds Scirpus juncoides (collected in Iwamizawa area, Hokkaido)” value ([12]; 60 g ai/ha) of the same molecule?
Answer: 100%

Question: What does the source list for `COc1cc(OC)nc(C(O)c2cccc(F)c2NS(=O)(=O)C(F)(F)F)n1` (stereo not drawn) [Compound C-1, reference compound]?
Answer: herbicidal effect Cyperus serotinus [1, 14]: 70%; herbicidal effect Cyperus serotinus [1, 15]: 60%; herbicidal effect Cyperus serotinus [1, 16]: 80%; herbicidal effect Cyperus serotinus [1, 17]: 60%; herbicidal effect Monochoria vaginalis [2, 14]: 60%; herbicidal effect Monochoria vaginalis [2, 15]: 50%; herbicidal effect Monochoria vaginalis [2, 16]: 80%; herbicidal effect Monochoria vaginalis [2, 17]: 60%; herbicidal effect Scirpus juncoides [3, 14]: 70%; herbicidal effect Scirpus juncoides [3, 15]: 60%; herbicidal effect Scirpus juncoides [3, 16]: 80%; herbicidal effect Scirpus juncoides [3, 17]: 70%; herbicidal effect broad-leaved weeds [4, 14]: 50%; herbicidal effect broad-leaved weeds [4, 15]: 40%; herbicidal effect broad-leaved weeds [4, 16]: 80%; herbicidal effect broad-leaved weeds [4, 17]: 60%; period showing sufficient residual herbicidal effectiveness Cyperus serotinus [5]: 1 week; period showing sufficient residual herbicidal effectiveness Monochoria vaginalis [6]: <1 week; period showing sufficient residual herbicidal effectiveness Sagittaria pygmaea (Sagittaria pygmaea Miq.): 1 week; period showing sufficient residual herbicidal effectiveness Scirpus juncoides [7]: 2 week; period showing sufficient residual herbicidal effectiveness broad-leaved weeds [8]: <1 week; herbicidal effect against sulfonylurea resistant weeds Elatine triandra (collected in Kazo area, Saitama Pref.) ([9]; 30 g ai/ha): 60%; herbicidal effect against sulfonylurea resistant weeds Elatine triandra (collected in Kazo area, Saitama Pref.) ([9]; 60 g ai/ha): 70%; herbicidal effect against sulfonylurea resistant weeds Lindernia procumbens (collected in Higashi-Hiroshima area, Hiroshima Pref.) ([10]; 30 g ai/ha): 50%; herbicidal effect against sulfonylurea resistant weeds Lindernia procumbens (collected in Higashi-Hiroshima area, Hiroshima Pref.) ([10]; 60 g ai/ha): 80%; herbicidal effect against sulfonylurea resistant weeds Lindernia procumbens (collected in Kazo area, Saitama Pref.) ([11]; 30 g ai/ha): 40%; herbicidal effect against sulfonylurea resistant weeds Lindernia procumbens (collected in Kazo area, Saitama Pref.) ([11]; 60 g ai/ha): 60%; herbicidal effect against sulfonylurea resistant weeds Scirpus juncoides (collected in Iwamizawa area, Hokkaido) ([12]; 30 g ai/ha): 60%; herbicidal effect against sulfonylurea resistant weeds Scirpus juncoides (collected in Iwamizawa area, Hokkaido) ([12]; 60 g ai/ha): 70%; phytotoxicity to transplanted rice depth 0.5 cm ([13]; planting depth 0.5 cm): 35%; phytotoxicity to transplanted rice depth 2 cm ([13]; planting depth 2 cm): 20%
